# Patent US9102636B2, “Analgesic compounds, compositions, and uses thereof” (Galleon Pharmaceuticals, Inc., priority 2010, dated 2015)
# Where “and” joins values, the source holds several entries; their conditions need not be identical. Equal values may be shown once. Entries after “also recorded” stand apart in the source; their conditions may differ.
# Tests used:
# [1] = system: FCA induced tactile allodynia; experiment: FCA induced tactile allodynia (electronic von Frey); assay type: in vivo, rat
# Description: (§1) Compound 2 was evaluated in the rat Freund's complete adjuvant (FCA) model of inflammatory pain. The rat Freund's complete adjuvant (FCA) intraplantar model of inflammatory pain produces behaviors similar to those observed in patients and has been widely used to assess novel pharmacological treatments (Lam et al., 2008, J Ethnopharmacol. 120:44-50). The positive control was celecoxib (TRC, Montreal), and the negative control was vehicle (0.5% methyl cellulose, in phosphate buffered saline). […] The Hargreaves apparatus was obtained from Ugo Basile, Italy. The Freund's complete adjuvant was obtained from Sigma, St. Louis, and the electronic von frey was obtained from Stoelting, Ill. For this assay, paw withdrawal latency to a thermal stimulus was assessed using a radiant heat source (Ugo Basile, Italy) aimed at the plantar surface of the left hind paw (Hargreaves test; […] Paw withdrawal thresholds to a non-noxious tactile stimulus was assessed using an electronic von Frey apparatus that presented an increasing mechanical force to the plantar surface of the hind paw. Paw volume was measured by displacement of water and assuming a tissue density equal to that of water. […] Celecoxib (30 mg/kg p.o.) served as the positive control. […] After induction of anesthesia, the injection site was prepared in a sterile manner and 100 μl of a 50% suspension of FCA injected. After injection, animals were weighed and allowed to recover before being returned to their home cages. Statistical significance was determined on untransformed data using a two-way analysis of variance (Graphpad Prism, NC). Significant main effects were analyzed further by subsequent Bonferronni post-hoc test. The level of significance was set at p<0.05. Data are shown as mean±S.E.M. (with an asterisk to denote significance as compared to vehicle treated controls).
# [2] = system: FCA induced thermal hyperalgesia; experiment: FCA induced thermal hyperalgesia (Hargreaves); assay type: in vivo, rat; details: for Paw withdrawal latency: individual rats, FIG. 18A
# Description: as §1
# [3] = L-012 assay: inhibition of SIN-1 generated peroxynitrite induced luminescence/fluorescence of L-012; assay type: biochemical; details: 15 minute time point; average of three plates
# Description: Luminol like compound “L-012” is a chemilumescent probe that is activated by the presence of a ROS and/or RNS such as peroxynitrite. In this assay L-012 was oxidized by the addition of 3-Morpholino-sydnonimine (“SIN-1”), a known peroxynitrite generator. The emitted fluorescence was directly proportional to the concentration of SIN-1. The compounds of the invention were then assessed for their ability to scavenge peroxynitrite by blocking the increase of peroxynitrite induced fluorescence. Concentrations of compound producing 50% inhibition of the fluorescence signal (IC50 values) were calculated by testing the compounds of the invention at various concentrations and averaging the IC50 of three plates.
# The following solutions were added to white polystyrene, non-sterile 96-well plate (Costar #3912): 196 μL of 50 μM L-012; 2 μL of the test compound; and 24 μL of 500 mM SIN-1. Fresh stock of 50 μM L-012 in PBS pH 7.4 was made for each 96 well plate that was analyzed. The plates were read in a FlexStation3 (Molecular Devices) using the luminescent mode at 37° C. for 30 min, with a measurement every 30 seconds and an integration time of 100 msec.
# Luminescence signal was recorded by the FlexStation3 kinetically at 37° C. for 30 minutes, with a measurement every 30 seconds and an integration time of 100 msec. The data in rows A and H were dropped from each plate to exclude the possibility of an ‘edge effect’. Thus, each test compound had 3 replicates per plate.
# [4] = system: capsaicin-mediated hyperalgesia; experiment: Capsaicin-induced hyperalgesia; assay type: in vivo; details: rat; IV prior to intra-plantar capsaicin; FIG. 8
# ataxia (rotarod) = experiment: Accelerating rotarod assay of ataxia (latency to fall); assay type: in vivo, rat; details: for Latency to fall: maximum 300 seconds, individual animals
# Description: Compound 2 was evaluated in a rat accelerating rotarod model of ataxia. Ataxia is a common clinical problem with CNS-active compounds and can often confound interpretation of efficacy in preclinical pain models. The rotarod assay of ataxia has been widely used to assess the side-effect liability of novel pharmacological treatments (Jones & Roberts, 1968, J. Pharm. […] The positive control was haloperidol (Sigma, St. […] Male Sprague-Dawley Rats (Harlan, Ill.) were 250-300 g at time of dosing. Rotarod was obtained from IITC, CA. To examine the potential effects of Compound 2 on motor performance, rats were tested on an accelerating rotarod (IITC, Ca). […] Rats received two timed training trials (averaged to give the reported baseline) on the first day, then 24 hr later rats were administered Compound 2 (30, 100 and 300 mg/kg, p.o.), haloperidol (3 mg/kg, p.o.), the positive control, or vehicle. […] Statistical significance was determined on untransformed data using a two-way analysis of variance (Graphpad Prism, NC). Significant main effects were analyzed further by subsequent Bonferronni post-hoc test. The level of significance was set at p<0.05. Data are shown as mean±S.E.M. (with an asterisk to denote significance as compared to vehicle treated controls).
# [5] = system: Carrageenan-induced thermal hyperalgesia; experiment: Carrageenan-induced thermal hyperalgesia (Hargreaves); assay type: in vivo, rat; details: for Paw withdrawal latency: cut-off 40 s, individual animals
# [6] = system: hyperalgesia caused by SIN-1; experiment: Hyperalgesia caused by SIN-1; assay type: in vivo; details: rat; IV 15 minutes before first SIN-1 (1 mg/kg); FIG. 11
# Description: Vehicle or compound 2 was given IV 15 minutes before the first administration of SIN-1 (1 mg/kg).
# [7] = Oral pharmacokinetics (Tmax) in rats; details: rat, in vivo, given orally
smiles,measurement,setting,value
"CC1(C)SC(Nc2ccccc2O)=N[C@@H]1C(=O)O [Compound 2, (R)-2-(2-hydroxyphenylamino)-thiazoline-5,5-dimethyl-4-carboxylic acid]",Paw withdrawl threshold,"[1]; 30 (min post-dose), 30 mg/kg p.o. 24 hours post-FCA, 30 mg/kg",19.3 g and 32.6 g and 27.3 g and 30.2 g and 26.3 g and 19.5 g
same,Paw withdrawl threshold,"[1]; 30 (min post-dose), 100 mg/kg p.o. 24 hours post-FCA, 100 mg/kg",28.6 g and 27.9 g and 19.3 g and 34.6 g and 31.6 g and 21 g
same,Paw withdrawl threshold,"[1]; 60 (min post-dose), 3 mg/kg p.o. 24 hours post-FCA, 3 mg/kg",22 g and 16.5 g and 21.4 g and 15.7 g and 22.3 g and 18 g
same,Paw withdrawl threshold,"[1]; 60 (min post-dose), 30 mg/kg p.o. 24 hours post-FCA, 30 mg/kg",24 g and 24.2 g and 26.5 g and 21.6 g and 27.4 g and 31.1 g
same,Paw withdrawl threshold,"[1]; 60 (min post-dose), 100 mg/kg p.o. 24 hours post-FCA, 100 mg/kg",31.2 g and 27.5 g and 35.3 g and 29.1 g and 30.3 g and 34.6 g
same,Paw withdrawl threshold,"[1]; BL(D1), 24 hours post-FCA before dosing, 3 mg/kg group, 3 mg/kg",20.5 g and 15.3 g and 18.5 g and 16.5 g and 17.3 g and 15.8 g
same,Paw withdrawl threshold,"[1]; BL(D1), 24 hours post-FCA before dosing, 30 mg/kg group, 30 mg/kg",15 g and 19.2 g and 18.2 g and 22.5 g and 17.8 g and 16.5 g
same,Paw withdrawl threshold,"[1]; BL(D1), 24 hours post-FCA before dosing, 100 mg/kg group, 100 mg/kg",12.8 g and 13.9 g and 16 g and 19.3 g and 23.51 g and 12.6 g
same,Paw withdrawl threshold,"[1]; baseline (pre-FCA), 3 mg/kg group, individual rats, 3 mg/kg",36.1 g and 32.4 g and 35.8 g and 33.4 g and 34.4 g and 30.9 g
same,Paw withdrawl threshold,"[1]; baseline (pre-FCA), 10 mg/kg group, individual rats, 10 mg/kg",28.6 g and 26.67 g and 37.9 g and 31.3 g and 39 g and 31.8 g
same,Paw withdrawl threshold,"[1]; baseline (pre-FCA), 30 mg/kg group, individual rats, 30 mg/kg",33.2 g and 34.9 g (2×) and 36.6 g and 35.6 g and 33.4 g
same,Paw withdrawl threshold,"[1]; baseline (pre-FCA), 100 mg/kg group, individual rats, 100 mg/kg",31.8 g and 26.6 g and 27.6 g and 33.33 g and 37.8 g and 31.9 g
same,"Paw withdrawal latency (s), FIG. 18B","[1]; baseline (prior to FCA), individual rats",29.6 s (2×) and 32.5 s and 29.8 s and 27.5 s and 31.4 s
same,"Paw withdrawal latency (s), FIG. 18B","[1]; day 1, compound 2 25 mg/kg i.v. preemptive, individual rats, 25 mg/kg",36.7 s and 26.7 s and 38.9 s and 25 s and 27 s and 29 s
same,"Paw withdrawal latency (s), FIG. 18B","[1]; day 3, compound 2 25 mg/kg i.v. preemptive, individual rats, 25 mg/kg",29.8 s and 28 s and 30 s and 27.7 s and 23.5 s and 33.8 s
same,"Paw withdrawal latency (s), FIG. 18B","[1]; day 4, compound 2 25 mg/kg i.v. preemptive, individual rats, 25 mg/kg",25 s and 27.23 s and 36.5 s and 31.3 s and 31.9 s and 24.3 s
same,reversal of FCA-induced tactile allodynia (finding in words),"[1]; rat, 3, 10, 30 and 100 mg/kg p.o. curative, 24 hours post-FCA, significant at 10, 30 and 100 mg/kg, 30 and 60 minutes",significant reversal of FCA induced tactile allodynia; also recorded: able to reverse established inflammatory tactile allodynia; also recorded: significantly reversed
same,FCA-induced tactile allodynia (finding in words),"[1]; rat, p.o. single dose 25 mg/kg preemptive",significantly prevented
same,FCA tactile allodynia (finding in words),"[1]; rat, single dose 25 mg/kg i.v. preemptive, significant 24, 48 and 72 hours post-FCA, 25 mg/kg",prevented the development; also recorded: significantly prevented
same,Paw withdrawal latency,[2]; baseline (prior to FCA),16.6 s and 17.55 s and 20.74 s and 20.9 s and 20.6 s and 19.33 s
same,Paw withdrawal latency,"[2]; day 1, compound 2 25 mg/kg i.v. preemptive, 25 mg/kg",14.4 s and 156.3 s and 15.1 s (2×) and 15.7 s and 22.7 s
same,Paw withdrawal latency,"[2]; day 3, compound 2 25 mg/kg i.v. preemptive, 25 mg/kg",12.5 s and 19.12 s and 19.5 s (2×) and 15.7 s and 17.7 s
same,Paw withdrawal latency,"[2]; day 4, compound 2 25 mg/kg i.v. preemptive, 25 mg/kg",14 s and 16.25 s and 16.51 s (2×) and 16.6 s and 18.2 s
same,FCA thermal hyperalgesia (finding in words),"[2]; rat, single dose 25 mg/kg i.v. preemptive, significant 72 hours post-FCA, 25 mg/kg",prevented the development; also recorded: significantly prevented
same,IC50,[3],130 nM
same,effect on capsaicin-mediated hyperalgesia,[4],inhibits capsaicin-mediated hyperalgesia
same,Latency to fall,"ataxia (rotarod); compound 2 30 mg/kg p.o., Baseline, 30 mg/kg",70 sec and 108.5 sec and 72 sec and 68 sec (2×) and 52 sec and 49 sec and 60.5 sec and 48.5 sec and 47.5 sec (2×) and 97 sec
same,Latency to fall,"ataxia (rotarod); compound 2 30 mg/kg p.o., Post-Drug (1 hr), 30 mg/kg",39 s and 99 s and 72 s and 94 s and 66 s and 81 s and 133 s and 120 s and 56 s and 115 s and 50 s and 70 s
same,Latency to fall,"ataxia (rotarod); compound 2 100 mg/kg p.o., Baseline, 100 mg/kg",43.5 s and 75.5 s and 55 s and 63 s and 60.5 s and 73.5 s and 73 s and 72 s and 54.5 s and 54 s and 46.5 s and 53 s
same,Latency to fall,"ataxia (rotarod); compound 2 100 mg/kg p.o., Post-Drug (1 hr), 100 mg/kg",86 sec and 64 sec and 45 sec (2×) and 111 sec and 91 sec and 221 sec and 72 sec (2×) and 66 sec and 20 sec and 199 sec
same,Latency to fall,"ataxia (rotarod); compound 2 300 mg/kg p.o., Baseline, 300 mg/kg",84 sec and 76.5 sec and 57 sec and 86.5 sec (2×) and 81.5 sec and 79 sec and 71.5 sec and 61 sec and 97.5 sec and 89 sec
same,Latency to fall,"ataxia (rotarod); compound 2 300 mg/kg p.o., Post-Drug (1 hr), 300 mg/kg",184 sec (2×) and 55 sec (2×) and 112 sec and 105 sec and 124 sec and 175 sec and 43 sec and 131 sec and 78 sec
same,"latency to fall, accelerating rotarod (finding in words)","ataxia (rotarod); rat, 30, 100 and 300 mg/kg p.o., 1 hr post-dosing",did not significantly decrease latency to fall; also recorded: did not significantly reduce latency to fall
same,Paw withdrawal latency,"[5]; compound 2 10 mg/kg p.o. preemptive (15 minutes prior to carrageenan), baseline prior to carrageenan (first line), 10 mg/kg",20.94 s and 40 s and 25.09 s and 26.96 s and 13.66 s and 23.25 s
same,Paw withdrawal latency,"[5]; compound 2 10 mg/kg p.o. preemptive, 4 hours post carrageenan (second line), 10 mg/kg",8.1 s and 5.07 s and 20.71 s and 12.18 s and 11.94 s and 9.38 s
same,Paw withdrawal latency,"[5]; compound 2 30 mg/kg p.o. preemptive, 4 hours post carrageenan (second line), 30 mg/kg",11.57 s and 16.63 s and 6.81 s and 11 s and 32.38 s and 11.6 s
same,Paw withdrawal latency,"[5]; compound 2 30 mg/kg p.o. preemptive, baseline prior to carrageenan (first line), 30 mg/kg",27.75 s and 15.78 s and 35.57 s and 23.26 s and 18.37 s and 25.78 s
same,"carrageenan-induced thermal hyperalgesia, preemptive (finding in words)","[5]; rat, 10 and 30 mg/kg p.o. 15 minutes prior to carrageenan",did not significantly prevent
same,hyperalgesia caused by SIN-1,[6],inhibits hyperalgesia caused by SIN-1
same,Tmax,[7],1 h
